Source: PubChem BioAssay AID652281 (Sanford-Burnham Center for Chemical Genomics, 2013)
Active and inactive are the calls of the source.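 How the source made its calls: active means compounds toxic to worms, with a half-maximal toxicity dose of 25 µM or lower; inactive means the rest.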

System: C. elegans VP596 worm health composite score, 20-22 h
Assay: whole-worm cytotoxicity of SKN-1 inhibitor analogs – whole organism, strain VP596, composite health score, round 2, cytotoxicity control for SKN-1 inhibitor project, SAR follow-up (AID 652281)

Row | Compound | IC50
1 | CCOc1cc(CN2CCCCC2)cc(Cl)c1OCc1ccc(F)cc1 | > 64 µM (inactive)
2 | CCOc1cc(CNC2CC2)cc(Cl)c1OCc1ccc(C#N)cc1 | > 64 µM (inactive)
3 | CCOc1cc(CN2CCN(C)CC2)cc(Cl)c1OCc1ccc(F)cc1 | > 64 µM (inactive)
4 | CCOc1cc(CNC2CC2)cc(Cl)c1OCc1ccc(Cl)cc1 | > 64 µM (inactive)
5 | C#CCNCc1cc(Cl)c(OCc2ccc(Cl)cc2)c(OCC)c1 | > 64 µM (inactive)
6 | COc1cc(CNC2CCCC2)cc(Br)c1OCc1ccc(Cl)cc1 | > 64 µM (inactive)
7 | COc1cc(CNC2CCCC2)cc(F)c1OCc1ccc(Cl)cc1 | > 64 µM (inactive)
8 | CCOc1cc(CNC2CCCC2)cc(Cl)c1OCc1ccc(C#N)cc1 | > 64 µM (inactive)
9 | CCOc1cc(CN2CCOCC2)cc(Cl)c1OCc1ccc(Cl)cc1 | > 64 µM (inactive)
10 | CCOc1cc(CNC2CCCC2)cc(Cl)c1OCc1ccc(Cl)cc1F | > 64 µM (inactive)
11 | Clc1ccc(COc2c(Cl)cc(CNC3CCCC3)cc2Cl)cc1 | > 64 µM (inactive)
12 | CCOc1cc(CN(C(C)=O)C2CCCC2)cc(Cl)c1OCc1ccc(Cl)cc1 | > 64 µM (inactive)
13 | CCOc1cc(CN2CCCCC2)cc(Cl)c1OCc1ccc(Cl)cc1 | > 64 µM (inactive)
14 | CCOc1cc(CN(C)C2CCCC2)cc(Cl)c1OCc1ccc(Cl)cc1 | > 64 µM (inactive)
15 | CCOc1cc(CN2CCN(C)CC2)cc(Cl)c1OCc1ccc(Cl)cc1 | > 64 µM (inactive)
16 | Cc1cc(CNC2CCCC2)cc(C)c1OCc1ccc(Cl)cc1 | > 64 µM (inactive)
17 | CCCNCc1cc(Cl)c(OCc2ccc(Cl)cc2)c(OCC)c1 | > 64 µM (inactive)
18 | CCOc1cc(CN2CCOCC2)cc(Cl)c1OCc1ccc(F)cc1 | > 64 µM (inactive)
19 | CCOc1cc(CNC)cc(Cl)c1OCc1ccc(Cl)cc1 | > 64 µM (inactive)
20 | CCOc1cc(CNC2CCCC2)cc(Cl)c1OCc1ccc(Br)cc1 | > 64 µM (inactive)
21 | CCOc1cc(CNC2CC2)cc(Cl)c1OCc1ccc(Br)cc1 | > 64 µM (inactive)
22 | CCOc1cc(CNC2CC2)cc(Cl)c1OCc1ccc(Cl)cc1F | > 64 µM (inactive)
23 | CCOc1cc(CN2CCCC2)cc(Cl)c1OCc1ccc(Cl)cc1 | > 64 µM (inactive)
24 | COc1cc(CNC2CCCC2)cc(Cl)c1OCc1ccc(Cl)cc1 | > 64 µM (inactive)
25 | C=CCNCc1cc(Cl)c(OCc2ccc(Cl)cc2)c(OCC)c1 | > 64 µM (inactive)
26 | CCOc1cc(CNCC2CC2)cc(Cl)c1OCc1ccc(Cl)cc1 | > 64 µM (inactive)
27 | CCOc1cc(CN2CCCC2)cc(Cl)c1OCc1ccc(F)cc1 | > 64 µM (inactive)
